Assay results as given in ChEMBL document CHEMBL4651402, “Screening of ~5500 FDA-approved drugs and clinical candidates for anti-SARS-CoV-2 activity” (2021).

System: SARS-CoV-2
Test: not given
Conditions: vero c1008

SMILES | pIC50 | IC50 [µM]
O=S(=O)(O)c1cc(O)ccc1O [DOBESILIC ACID] | < 4.7 | 
CC(C)(NC(=O)O[C@@H]1CN2CCC1CC2)c1csc(-c2ccc(F)cc2)n1 | < 4.7 | > 20
O=c1cnn([C@@H]2O[C@H](CO)[C@@H](O)[C@H]2O)c(=O)[nH]1 [6-AZAURIDINE] |  | > 100

System: SARS-CoV-2
Test: microbe, parasite or virus in culture
Format: functional, organism-based, Chlorocebus sabaeus, Vero C1008
Conditions: Severe acute respiratory syndrome coronavirus 2, Vero C1008, 48 h; read-out: IC50

SMILES | IC50 [µM]
CNCc1ccc(-c2cc(-c3nc(-c4ccc(S(=O)(=O)C(C)C)cc4)cnc3N)on2)cc1 [BERZOSERTIB] | ~7.16
CCN(CCO)CCC[C@@H](C)Nc1ccnc2cc(Cl)ccc12 | > 50.1
C#C[C@]1(O)CC[C@H]2[C@@H]3CCC4=CCCC[C@@H]4[C@H]3CC[C@@]21C [LYNESTRENOL] | > 50.1
CCC1CN2CCC1CC2C(O)c1ccnc2ccc(OCCC(C)C)cc12 (configuration not stated) | > 100
COc1cc(C(=O)OCCN2CCN(CCCN3c4ccccc4Sc4ccc(Cl)cc43)CC2)cc(OC)c1OC [METOFENAZATE] | > 100
CC(C)(C)c1cc(C(C)(C)C)c(NC(=O)c2c[nH]c3ccccc3c2=O)cc1O [IVACAFTOR] | > 25.1
CCN(CC)CCOC1(c2ccccc2)CCN(CCNc2ccccc2)CC1 [DIAMOCAINE] | 22.4
Cc1[nH]c(/C=C2/C(=O)Nc3ccccc32)c(C)c1CCC(=O)O | > 50.1
Clc1cnn(CCCCN2CCN(c3ncccn3)CC2)c1 [LESOPITRON] | > 100
Cc1ccc(CCCO)c(NCc2ccc3nc(NCCCN4CCOCC4)n(Cc4nc(C)ccc4O)c3c2)c1 | > 20
COc1cc(Br)c2oc(C3CCNCC3)cc2c1 [BROFAROMINE] | > 100
COc1cc(C(=O)OCCCN2CCCN(CCCOC(=O)c3cc(OC)c(OC)c(OC)c3)CC2)cc(OC)c1OC [DILAZEP] | > 100
CC(CN(C)C)CN1c2ccccc2Sc2ccccc21 (configuration not stated) | > 25.1

Same assay, conditions: Severe acute respiratory syndrome coronavirus 2, Vero C1008, 48 h; read-out: pIC50 (converted)

SMILES | IC50 [µM]
CNCc1ccc(-c2cc(-c3nc(-c4ccc(S(=O)(=O)C(C)C)cc4)cnc3N)on2)cc1 [BERZOSERTIB] | ~7.08
CCN(CCO)CCC[C@@H](C)Nc1ccnc2cc(Cl)ccc12 | > 50.1
C#C[C@]1(O)CC[C@H]2[C@@H]3CCC4=CCCC[C@@H]4[C@H]3CC[C@@]21C [LYNESTRENOL] | > 50.1
CCC1CN2CCC1CC2C(O)c1ccnc2ccc(OCCC(C)C)cc12 (configuration not stated) | > 100
COc1cc(C(=O)OCCN2CCN(CCCN3c4ccccc4Sc4ccc(Cl)cc43)CC2)cc(OC)c1OC [METOFENAZATE] | > 100
CC(C)(C)c1cc(C(C)(C)C)c(NC(=O)c2c[nH]c3ccccc3c2=O)cc1O [IVACAFTOR] | > 25.1
CCN(CC)CCOC1(c2ccccc2)CCN(CCNc2ccccc2)CC1 [DIAMOCAINE] | 22.4
Cc1[nH]c(/C=C2/C(=O)Nc3ccccc32)c(C)c1CCC(=O)O | > 50.1
Clc1cnn(CCCCN2CCN(c3ncccn3)CC2)c1 [LESOPITRON] | > 100
Cc1ccc(CCCO)c(NCc2ccc3nc(NCCCN4CCOCC4)n(Cc4nc(C)ccc4O)c3c2)c1 | > 20
COc1cc(Br)c2oc(C3CCNCC3)cc2c1 [BROFAROMINE] | > 100
COc1cc(C(=O)OCCCN2CCCN(CCCOC(=O)c3cc(OC)c(OC)c(OC)c3)CC2)cc(OC)c1OC [DILAZEP] | > 100
CC(CN(C)C)CN1c2ccccc2Sc2ccccc21 (configuration not stated) | > 25.1

System: not listed separately
Test: in vitro
Conditions: chlorocebus sabaeus, Vero E6 (Vero C1008) cells, CC50

SMILES | CC50 at 48 h [µM]
CNCc1ccc(-c2cc(-c3nc(-c4ccc(S(=O)(=O)C(C)C)cc4)cnc3N)on2)cc1 [BERZOSERTIB] | 10.2
CCN(CCO)CCC[C@@H](C)Nc1ccnc2cc(Cl)ccc12 | > 50.1
C#C[C@]1(O)CC[C@H]2[C@@H]3CCC4=CCCC[C@@H]4[C@H]3CC[C@@]21C [LYNESTRENOL] | 10.5
CCC1CN2CCC1CC2C(O)c1ccnc2ccc(OCCC(C)C)cc12 (configuration not stated) | 11.4
COc1cc(C(=O)OCCN2CCN(CCCN3c4ccccc4Sc4ccc(Cl)cc43)CC2)cc(OC)c1OC [METOFENAZATE] | > 100
CC(C)(C)c1cc(C(C)(C)C)c(NC(=O)c2c[nH]c3ccccc3c2=O)cc1O [IVACAFTOR] | 4.62
CCN(CC)CCOC1(c2ccccc2)CCN(CCNc2ccccc2)CC1 [DIAMOCAINE] | 46.8
Cc1[nH]c(/C=C2/C(=O)Nc3ccccc32)c(C)c1CCC(=O)O | > 50.1
Clc1cnn(CCCCN2CCN(c3ncccn3)CC2)c1 [LESOPITRON] | > 100
Cc1ccc(CCCO)c(NCc2ccc3nc(NCCCN4CCOCC4)n(Cc4nc(C)ccc4O)c3c2)c1 | 9.33
COc1cc(Br)c2oc(C3CCNCC3)cc2c1 [BROFAROMINE] | 19.1
COc1cc(C(=O)OCCCN2CCCN(CCCOC(=O)c3cc(OC)c(OC)c(OC)c3)CC2)cc(OC)c1OC [DILAZEP] | ~28.2
CC(CN(C)C)CN1c2ccccc2Sc2ccccc21 (configuration not stated) | 21.4

Same assay, conditions: chlorocebus sabaeus, Vero E6 (Vero C1008) cells, pCC50

SMILES | CC50 at 48 h [µM]
CNCc1ccc(-c2cc(-c3nc(-c4ccc(S(=O)(=O)C(C)C)cc4)cnc3N)on2)cc1 [BERZOSERTIB] | 10.2
CCN(CCO)CCC[C@@H](C)Nc1ccnc2cc(Cl)ccc12 | > 50.1
C#C[C@]1(O)CC[C@H]2[C@@H]3CCC4=CCCC[C@@H]4[C@H]3CC[C@@]21C [LYNESTRENOL] | 10.5
CCC1CN2CCC1CC2C(O)c1ccnc2ccc(OCCC(C)C)cc12 (configuration not stated) | 11.2
COc1cc(C(=O)OCCN2CCN(CCCN3c4ccccc4Sc4ccc(Cl)cc43)CC2)cc(OC)c1OC [METOFENAZATE] | > 100
CC(C)(C)c1cc(C(C)(C)C)c(NC(=O)c2c[nH]c3ccccc3c2=O)cc1O [IVACAFTOR] | 4.57
CCN(CC)CCOC1(c2ccccc2)CCN(CCNc2ccccc2)CC1 [DIAMOCAINE] | 46.8
Cc1[nH]c(/C=C2/C(=O)Nc3ccccc32)c(C)c1CCC(=O)O | > 50.1
Clc1cnn(CCCCN2CCN(c3ncccn3)CC2)c1 [LESOPITRON] | > 100
Cc1ccc(CCCO)c(NCc2ccc3nc(NCCCN4CCOCC4)n(Cc4nc(C)ccc4O)c3c2)c1 | 9.33
COc1cc(Br)c2oc(C3CCNCC3)cc2c1 [BROFAROMINE] | 19.1
COc1cc(C(=O)OCCCN2CCCN(CCCOC(=O)c3cc(OC)c(OC)c(OC)c3)CC2)cc(OC)c1OC [DILAZEP] | ~28.2
CC(CN(C)C)CN1c2ccccc2Sc2ccccc21 (configuration not stated) | 21.4

System: SARS-CoV-2
Test: microbe, parasite or virus in culture
Conditions: Severe acute respiratory syndrome coronavirus 2, Vero C1008, 48 h

SMILES | IC50 [µM]
CNCc1ccc(-c2cc(-c3nc(-c4ccc(S(=O)(=O)C(C)C)cc4)cnc3N)on2)cc1 [BERZOSERTIB] | > 5.01
CCN(CCO)CCC[C@@H](C)Nc1ccnc2cc(Cl)ccc12 | 12.7
C#C[C@]1(O)CC[C@H]2[C@@H]3CCC4=CCCC[C@@H]4[C@H]3CC[C@@]21C [LYNESTRENOL] | > 50.1
CCC1CN2CCC1CC2C(O)c1ccnc2ccc(OCCC(C)C)cc12 (configuration not stated) | > 100
COc1cc(C(=O)OCCN2CCN(CCCN3c4ccccc4Sc4ccc(Cl)cc43)CC2)cc(OC)c1OC [METOFENAZATE] | 18.6
CC(C)(C)c1cc(C(C)(C)C)c(NC(=O)c2c[nH]c3ccccc3c2=O)cc1O [IVACAFTOR] | 4.57
CCN(CC)CCOC1(c2ccccc2)CCN(CCNc2ccccc2)CC1 [DIAMOCAINE] | ~9.55
Cc1[nH]c(/C=C2/C(=O)Nc3ccccc32)c(C)c1CCC(=O)O | ~2
Clc1cnn(CCCCN2CCN(c3ncccn3)CC2)c1 [LESOPITRON] | 2.34
Cc1ccc(CCCO)c(NCc2ccc3nc(NCCCN4CCOCC4)n(Cc4nc(C)ccc4O)c3c2)c1 | > 20
COc1cc(Br)c2oc(C3CCNCC3)cc2c1 [BROFAROMINE] | 14.8
COc1cc(C(=O)OCCCN2CCCN(CCCOC(=O)c3cc(OC)c(OC)c(OC)c3)CC2)cc(OC)c1OC [DILAZEP] | > 100
CC(CN(C)C)CN1c2ccccc2Sc2ccccc21 (configuration not stated) | 17.4

Same assay, conditions: Severe acute respiratory syndrome coronavirus 2, Vero C1008, 48 h, read-out: pIC50 (converted)

SMILES | IC50 [µM]
CNCc1ccc(-c2cc(-c3nc(-c4ccc(S(=O)(=O)C(C)C)cc4)cnc3N)on2)cc1 [BERZOSERTIB] | > 5.01
CCN(CCO)CCC[C@@H](C)Nc1ccnc2cc(Cl)ccc12 | 12.6
C#C[C@]1(O)CC[C@H]2[C@@H]3CCC4=CCCC[C@@H]4[C@H]3CC[C@@]21C [LYNESTRENOL] | > 50.1
CCC1CN2CCC1CC2C(O)c1ccnc2ccc(OCCC(C)C)cc12 (configuration not stated) | > 100
COc1cc(C(=O)OCCN2CCN(CCCN3c4ccccc4Sc4ccc(Cl)cc43)CC2)cc(OC)c1OC [METOFENAZATE] | 18.6
CC(C)(C)c1cc(C(C)(C)C)c(NC(=O)c2c[nH]c3ccccc3c2=O)cc1O [IVACAFTOR] | 4.57
CCN(CC)CCOC1(c2ccccc2)CCN(CCNc2ccccc2)CC1 [DIAMOCAINE] | ~9.55
Cc1[nH]c(/C=C2/C(=O)Nc3ccccc32)c(C)c1CCC(=O)O | ~2
Clc1cnn(CCCCN2CCN(c3ncccn3)CC2)c1 [LESOPITRON] | 2.34
Cc1ccc(CCCO)c(NCc2ccc3nc(NCCCN4CCOCC4)n(Cc4nc(C)ccc4O)c3c2)c1 | > 20
COc1cc(Br)c2oc(C3CCNCC3)cc2c1 [BROFAROMINE] | 14.8
COc1cc(C(=O)OCCCN2CCCN(CCCOC(=O)c3cc(OC)c(OC)c(OC)c3)CC2)cc(OC)c1OC [DILAZEP] | > 100
CC(CN(C)C)CN1c2ccccc2Sc2ccccc21 (configuration not stated) | 17.4
